The target in data set [1] is T1, human Pin1 (Homo sapiens, UniProt Q13526).
T1 construct: Residues 1–163 of human Pin1 were expressed with a thrombin cleavage site and a HisTag at the N-terminus; 6xHis (N); thrombin cleavage site (N); made in house; host or cells: E. coli
Briefly: Denaturation thermal shift measurements (SYPRO Orange). It counts as binding. As to conditions: thermal denaturation shift of Pin1, 20 μM protein, protein:ligand 1:2, 50 mM phosphate pH 7.5, 150 mM NaCl, 3% DMSO, 10-95°C, quadruplicates. The method, then: To assess the ability of our agents to bind and inhibit Pin1, we developed a robust biochemical assay based on the dissociation-enhanced lanthanide fluorescent immunoassay (DELFIA) platform. In our implementation, we used a biotinylated form of a known Pin1-binding peptide (D-peptide) to monitor the ability of test agents to inhibit the interaction between Pin1 and the D-peptide at various incubation times, as described previously.[32] […] In addition, as mentioned above and reported recently, we tested the ability of the agents to reduce Pin1 thermal stability in vitro by thermal denaturation measurements.[32] […] Pin1 unfolding causes a nonspecific interaction between the water-quenched fluorescent dye and the protein’s exposed hydrophobic residues, resulting in increased fluorescence. A shift in the thermal denaturation temperature between the free and bound protein is interpreted as a stabilization or destabilization event induced by the test ligand. […] To further assess whether these agents could be suitable for in vivo efficacy studies, we also performed stability assays in aqueous buffer and in plasma from various species (Table S2, Figure S2). We tested the stability of our agents in plasma from multiple mouse strains as well as in human plasma (Figure S2), given the peptide nature of the compounds. […]

A further data set has as its target T2, Pin1 in KPC cells (Mus musculus, UniProt Q9QUR7).
T2 construct: endogenous in cells; host or cells: KPC
Kind of data set: Pin1 degradation by western blot in KPC cells. In kind it is cell-based. To be noted: 0.5-15 μM for 24 h, Pin1 relative to β-actin. The method, then:
(§1) To ascertain that the plasma-stable agent 164B8 retained its ability to induce Pin1 degradation in cells, we tested it in three pancreatic cancer cell lines—human BxPC3 and MIA PaCa-2, and the mouse pancreatic cancer cell line KPC—using western blot analysis (Figure 2).
(§2) Figure 2 Degradation of Pin1 in different cell lines in response to 164B8 treatment BxPC3, MIA PaCa-2, and KPC were each treated with 0.1% DMSO and concentrations of 164B8 ranging between 0.5 and 15 μM for 24 h, and Pin1 levels were quantified with respect to β-actin using a specific anti-Pin1 antibody and western blotting (uncropped blots are reported in Figure S6).
(§3) At the end of the treatments, cells were lysed with a lysis buffer containing 20 mM Tris (pH 7.4), 1% Triton X-100, 5 mM EDTA, 0.1% sodium dodecyl sulfate (SDS), 1% IGEPAL, 0.5% sodium deoxycholate, 120 mM NaCl, and a protease inhibitor cocktail and PhosSTOP (Sigma-Aldrich). Lysates were then centrifuged at 16,000 × g for 20 min at 4°C, and the supernatants were collected. Protein concentrations were determined using the Pierce BCA Protein Assay Kit (Thermo Fisher Scientific) according to the manufacturer’s protocol. For traditional western blotting (Figure 2), samples were loaded onto precast Bis-Tris gels and subsequently transferred onto PVDF membranes. […]

Data set [2] in a line: Stability in plasma from Black 6-Cg mice. It counts as in vitro ADME. To be noted: Black 6-Cg (B6-Cg), mouse, 37°C, up to 6 h, acetonitrile quench, LC-MS/MS. The method, then: (§4) A solution of a Pin1 inhibitor was spiked into blank plasma at 1 μg/mL in various solutions, including an aqueous buffer (1× phosphate-buffered saline; Fisher Scientific, Fair Lawn, NJ), human plasma (Innovative Research Inc., Novi, MI), wild-type mouse plasma (Innovative Research Inc., Novi, MI), plasma form esterase-deficient mice (City of Hope, Duarte, CA), and plasma from Black 6-Cg mice (City of Hope, Duarte, CA).
(§5) The spiked plasma samples were incubated at 37°C for up to 6 h. At each designated time point, a 20 μL aliquot of the incubation sample was removed and quenched in 100 μL of acetonitrile. At the end of the incubation, the quenched samples were vortexed and centrifuged for 10 min at 4°C and 20,000 × g. The resulting supernatant was reconstituted and analyzed by LC-MS/MS.
(§6) Table S2. Stability half-life of agents reported in Table 1 after incubation at 37 °C in various media. Acq represents aqueous buffer composed of 1x phosphate buffered saline (Fisher Scientific, Fair Lawn, NJ); human represents human plasma (Innovative Research Inc., Novi, MI); mouse wt represents wild type mouse plasma (Innovative Research Inc., Novi, MI); mouse ES1e represents plasma form esterase deficient mice (City of Hope, Duarte, CA); mouse B6-Cg represents plasma from black 6-Cg mice (City of Hope, Duarte, CA). See Figure 1 for the chemical structures of these compounds.
(§7) Compound Acq Human Mouse Mouse ES1e Mouse

The next data set has as its target T3, Pin1 in MIA PaCa-2 cells (Homo sapiens, UniProt Q13526).
T3 construct: endogenous in cells; host or cells: BxPC3, MIA PaCa-2
Briefly: Pin1 degradation by western blot in MIA PaCa-2 cells. It counts as cell-based. As to conditions: MIA PaCa-2, 0.5-15 μM for 24 h, Pin1 relative to β-actin. The method, then:
as §1, §2, §3

In the next data set the target is Pin1 in BxPC3 cells (Homo sapiens, UniProt Q13526). Kind of data set: Pin1 degradation by western blot in BxPC3 cells. In kind it is cell-based. Further details: endogenous in cells; host or cells: BxPC3, MIA PaCa-2. To be noted: BxPC3, 0.5-15 μM for 24 h, Pin1 relative to β-actin. The method, then: as §1, §2, §3
Sequence of Pin1 in BxPC3 cells (Q13526 whole entry): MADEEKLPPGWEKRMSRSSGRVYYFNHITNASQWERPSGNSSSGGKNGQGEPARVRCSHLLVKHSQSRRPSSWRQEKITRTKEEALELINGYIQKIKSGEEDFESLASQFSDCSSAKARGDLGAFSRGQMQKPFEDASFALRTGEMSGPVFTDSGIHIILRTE
A short description of data set [3]: Wild-type mouse plasma stability. It counts as in vitro ADME. As to conditions: 37°C, up to 6 h, acetonitrile quench, LC-MS/MS, value given in h, read-out: Stability half-life, Mouse WT (converted). The method, then:
as §4, §5, §6, §7

In data set [4] the target is T1, human Pin1. Briefly: Covalent complex formation with Pin1 by mass spectrometry. In kind it is binding. As to conditions: ligand 20 μM, 2:1 ligand-to-protein ratio, 10 min incubation.

The structures appear in SMILES notation. Non-standard residues stand in square brackets, D forms with d. Residues, ends and D or L forms follow the SMILES beside them. *: point of attachment. Trp(6-Cl) = N[C@@H](Cc1c[nH]c2cc(Cl)ccc12)C(=O)O; Pip = O=C(O)[C@@H]1CCCCN1; ClAc = O=C(CCl)*

T1 sequence (Q13526 whole entry, the tested form may be a part): as the sequence (Q13526 whole entry) above
T2 sequence (Q9QUR7 whole entry): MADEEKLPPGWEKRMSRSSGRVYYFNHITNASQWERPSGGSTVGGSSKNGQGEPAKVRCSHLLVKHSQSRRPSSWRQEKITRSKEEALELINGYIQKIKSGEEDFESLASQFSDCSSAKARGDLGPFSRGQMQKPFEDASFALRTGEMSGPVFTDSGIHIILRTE
T3 sequence (Q13526 whole entry): as the sequence (Q13526 whole entry) above

As usually defined, the half-life is the time in which the quantity being followed falls by half. On to `CNC(=O)[C@H](Cc1c[nH]c2ccccc12)NC(=O)[C@@H]1CCCCN1C(=O)[C@H](Cc1c[nH]c2cc(Cl)ccc12)NC(=O)CCl` [164B8] (ClAc-[Trp(6-Cl)]-[Pip]-Trp-NHMe), for which, at human Pin1 [1], the “ΔTm (°C)” value was −9.55 ± 0.19 °C. Besides, the “DC50 of Pin1 degradation” value on Pin1 in KPC cells, on Pin1 in MIA PaCa-2 cells and at Pin1 in BxPC3 cells was “sub-micromolar” each time. The half-life at 1 μg/mL was over 5 h in data set [2] and about 4.5 h in data set [3]. Further, the “% Complex (MS)” value at human Pin1 [4] is on record as “∼100%”.

These data come from paper PMC12657321, “Pre-clinical evaluation of a potent and effective Pin1-degrading agent in pancreatic cancer” (Molecular Therapy Oncology, 2025).
